In experiment [1] the target is T1, Orexin/Hypocretin receptor type 1 (Homo sapiens) (UniProt O43613).
T1 sequence (whole entry): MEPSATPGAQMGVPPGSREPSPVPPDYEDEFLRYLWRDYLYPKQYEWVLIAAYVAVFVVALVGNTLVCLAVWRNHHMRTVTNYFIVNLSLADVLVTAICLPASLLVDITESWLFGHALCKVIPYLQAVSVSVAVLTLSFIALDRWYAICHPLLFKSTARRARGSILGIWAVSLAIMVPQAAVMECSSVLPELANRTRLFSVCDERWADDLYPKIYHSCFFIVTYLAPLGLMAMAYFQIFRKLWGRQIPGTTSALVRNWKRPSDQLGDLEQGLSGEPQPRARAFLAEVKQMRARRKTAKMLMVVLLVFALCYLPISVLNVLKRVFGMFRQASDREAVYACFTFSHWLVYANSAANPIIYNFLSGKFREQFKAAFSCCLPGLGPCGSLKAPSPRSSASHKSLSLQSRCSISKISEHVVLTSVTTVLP
The experiment can be described thus: Agonist activity at OX1R (unknown origin) expressed in CHO cells at 10 uM by cell-based calcium assay relative to Orexin A. The format is functional.

The target in experiment [2] is T2, Orexin receptor type 2 (Homo sapiens) (UniProt O43614).
T2 sequence (whole entry): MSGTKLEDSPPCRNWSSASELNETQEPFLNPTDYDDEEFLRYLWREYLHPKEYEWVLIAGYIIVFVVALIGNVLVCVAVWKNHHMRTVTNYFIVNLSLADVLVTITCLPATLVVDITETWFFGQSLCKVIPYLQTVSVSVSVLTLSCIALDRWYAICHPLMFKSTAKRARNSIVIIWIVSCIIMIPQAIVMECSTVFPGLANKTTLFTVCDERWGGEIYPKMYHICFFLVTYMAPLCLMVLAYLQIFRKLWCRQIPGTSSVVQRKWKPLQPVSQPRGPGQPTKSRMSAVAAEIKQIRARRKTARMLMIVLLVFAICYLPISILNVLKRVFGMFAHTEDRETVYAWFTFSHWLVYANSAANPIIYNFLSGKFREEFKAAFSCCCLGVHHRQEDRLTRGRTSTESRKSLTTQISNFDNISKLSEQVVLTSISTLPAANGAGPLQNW
In words: Agonist activity at OX2R (unknown origin) expressed in CHO cells at 10 uM by cell-based calcium assay relative to orexin A. It is filed as functional.

For experiment [3], the target named is T3, Orexin/Hypocretin receptor type 1 (Homo sapiens, UniProt O43613).
T3 sequence (O43613 whole entry): T1 sequence (whole entry)
In words: Agonist activity at OX1R (unknown origin) expressed in CHO cells by cell-based calcium assay. The format is functional.

Experiment [4] deals with T4, Orexin receptor type 2 (Homo sapiens, UniProt O43614).
T4 sequence (O43614 whole entry): T2 sequence (whole entry)
The experiment can be described thus: Agonist activity at OX2R (unknown origin) expressed in CHO cells by cell-based calcium assay. It is filed as functional.

The species entered for experiment [5] is Homo sapiens. In words: Selectivity ratio of EC50 for agonist activity at human OX1R expressed in CHO-K1 cells to EC50 for agonist activity at human OX2R expressed in CHO-K1 cells. The format is cell-based.
Experiment [6] concerns the target T3, Orexin/Hypocretin receptor type 1. The experiment can be described thus: Antagonist activity at human OX1R expressed in CHO-K1 cells assessed as inhibition of orexin-A-induced increase in calcium mobilization preincubated for 15 mins followed orexin-A stimulation by Fura-2-AM dye based fluorescence assay. Background: Calcium flux is commonly read through the fluorescence of an indicator in the cells.

Structures are written as SMILES. pEC50, pKi: −log10 of the molar value.

With `COc1ccc(-c2cccc(C(=O)N(C)C)c2)cc1S(=O)(=O)Nc1ccc2ccc(N(C)C(=O)c3ccccc3)cc2c1`, the Efficacy in experiment [1] and in experiment [2] was < 5% throughout. Besides, the pEC50 in experiment [3] and in experiment [4] was < 5.00 in each case.

As for `COc1ccc(-c2cccc(C(=O)N(C)C)c2)cc1S(=O)(=O)Nc1ccc2ccc(NC(=O)c3ccccc3)cc2c1`, the Efficacy in experiment [1] and in experiment [2] was < 5% in each case. The pEC50 in experiment [3] and in experiment [4] was < 5.00 each time.

Consider `COc1ccccc1C(=O)N(C)c1cccc2ccc(NS(=O)(=O)c3cc(-c4cccc(C(=O)N(C)C)c4)ccc3OC)cc12`, for which the pEC50 in experiment [3] and in experiment [4] was < 5.00 in each case.

Take `COC(=O)N1CCC[C@H](NS(C)(=O)=O)[C@@H]1CO[C@H]1CC[C@@H](c2ccccc2)CC1`: the Ratio EC50 in experiment [5] was > 5000.

As to `COc1ccc(C(=O)Nc2cccc([C@]3(C)O[C@H]4CO[C@@H]5N4[C@H]3O[C@@]5(C)c3cccc(NC(=O)c4ccc(OC)cc4)c3)c2)cc1`, the pKi (usually the Ki on a negative log10 scale, so that one unit is a factor of ten) in experiment [6] is 8.66.

As to `COc1ccc(C(=O)Nc2cccc([C@]3(C)O[C@@H]4CO[C@H]5N4[C@@H]3O[C@@]5(C)c3cccc(NC(=O)c4ccc(OC)cc4)c3)c2)cc1`, the pKi in experiment [6] is 8.28.

The record behind these values is ChEMBL document CHEMBL5131434, “Design and synthesis of novel orexin 2 receptor agonists based on naphthalene skeleton” (Bioorg Med Chem Lett, 2022).
